± gives the expanded uncertainty stated by the source.
Assay: refractive index (Na D-line) (dimensionless); wn = mass fraction of the nth substance listed
Conditions: 101.33 kPa, Liquid, Standard Abbe refractometry

OCCCO [propan-1,3-diol] + O
refractive index
Conditions | w1 = 0.1113 | w1 = 0.2226 | w1 = 0.334 | w1 = 0.4453 | w1 = 0.501 | w1 = 0.6123 | w1 = 0.7236 | w1 = 0.8349 | w1 = 0.9277 | w1 = 1
278.15 K | 1.3466 ± 0.001 | 1.3599 ± 0.001 | 1.374 ± 0.001 | 1.3866 ± 0.001 | 1.3931 ± 0.001 | 1.4066 ± 0.001 | 1.4181 ± 0.001 | 1.4289 ± 0.001 | 1.4371 ± 0.001 | 1.4436 ± 0.001
283.15 K | 1.3462 ± 0.001 | 1.3592 ± 0.001 | 1.3729 ± 0.001 | 1.3856 ± 0.001 | 1.3921 ± 0.001 | 1.4055 ± 0.001 | 1.4169 ± 0.001 | 1.4276 ± 0.001 | 1.4358 ± 0.001 | 1.4423 ± 0.001
288.15 K | 1.3457 ± 0.001 | 1.3586 ± 0.001 | 1.3719 ± 0.001 | 1.3845 ± 0.001 | 1.391 ± 0.001 | 1.4041 ± 0.001 | 1.4157 ± 0.001 | 1.4263 ± 0.001 | 1.4345 ± 0.001 | 1.4409 ± 0.001
293.15 K | 1.3452 ± 0.001 | 1.3579 ± 0.001 | 1.371 ± 0.001 | 1.3835 ± 0.001 | 1.3899 ± 0.001 | 1.4029 ± 0.001 | 1.4145 ± 0.001 | 1.425 ± 0.001 | 1.4332 ± 0.001 | 1.4395 ± 0.001
298.15 K | 1.3446 ± 0.001 | 1.3572 ± 0.001 | 1.3702 ± 0.001 | 1.3825 ± 0.001 | 1.3888 ± 0.001 | 1.4015 ± 0.001 | 1.4133 ± 0.001 | 1.4237 ± 0.001 | 1.4319 ± 0.001 | 1.4381 ± 0.001
303.15 K | 1.344 ± 0.001 | 1.3564 ± 0.001 | 1.3693 ± 0.001 | 1.3815 ± 0.001 | 1.3876 ± 0.001 | 1.4002 ± 0.001 | 1.4118 ± 0.001 | 1.4224 ± 0.001 | 1.4304 ± 0.001 | 1.4368 ± 0.001
308.15 K | 1.3434 ± 0.001 | 1.3558 ± 0.001 | 1.3684 ± 0.001 | 1.3804 ± 0.001 | 1.3865 ± 0.001 | 1.3989 ± 0.001 | 1.4103 ± 0.001 | 1.4211 ± 0.001 | 1.4289 ± 0.001 | 1.4354 ± 0.001
313.15 K | 1.3426 ± 0.001 | 1.355 ± 0.001 | 1.3676 ± 0.001 | 1.3793 ± 0.001 | 1.3854 ± 0.001 | 1.3977 ± 0.001 | 1.4089 ± 0.001 | 1.4197 ± 0.001 | 1.4275 ± 0.001 | 1.434 ± 0.001
318.15 K | 1.3418 ± 0.001 | 1.3541 ± 0.001 | 1.3668 ± 0.001 | 1.3782 ± 0.001 | 1.3845 ± 0.001 | 1.3965 ± 0.001 | 1.4075 ± 0.001 | 1.4182 ± 0.001 | 1.4261 ± 0.001 | 1.4325 ± 0.001

CC(O)CO (configuration not stated) [1,2-propanediol] + O
refractive index
Conditions | 278.15 K | 283.15 K | 288.15 K | 293.15 K | 298.15 K | 303.15 K | 308.15 K | 313.15 K | 318.15 K
w1 = 0.0988 | 1.3458 ± 0.001 | 1.3454 ± 0.001 | 1.3449 ± 0.001 | 1.3444 ± 0.001 | 1.3432 ± 0.001 | 1.3432 ± 0.001 | 1.3424 ± 0.001 | 1.3416 ± 0.001 | 1.3408 ± 0.001
w1 = 0.198 | 1.3578 ± 0.001 | 1.3571 ± 0.001 | 1.3564 ± 0.001 | 1.3557 ± 0.001 | 1.355 ± 0.001 | 1.3542 ± 0.001 | 1.3534 ± 0.001 | 1.3534 ± 0.001 | 1.3516 ± 0.001
w1 = 0.3312 | 1.374 ± 0.001 | 1.373 ± 0.001 | 1.372 ± 0.001 | 1.371 ± 0.001 | 1.3699 ± 0.001 | 1.3689 ± 0.001 | 1.368 ± 0.001 | 1.3671 ± 0.001 | 1.366 ± 0.001
w1 = 0.5005 | 1.3946 ± 0.001 | 1.3932 ± 0.001 | 1.3918 ± 0.001 | 1.3903 ± 0.001 | 1.3889 ± 0.001 | 1.3874 ± 0.001 | 1.3862 ± 0.001 | 1.3851 ± 0.001 | 1.384 ± 0.001
w1 = 0.672 | 1.4112 ± 0.001 | 1.4098 ± 0.001 | 1.4084 ± 0.001 | 1.4069 ± 0.001 | 1.4054 ± 0.001 | 1.4039 ± 0.001 | 1.4024 ± 0.001 | 1.4008 ± 0.001 | 1.3994 ± 0.001
w1 = 0.8044 | 1.4231 ± 0.001 | 1.4216 ± 0.001 | 1.42 ± 0.001 | 1.4184 ± 0.001 | 1.4168 ± 0.001 | 1.415 ± 0.001 | 1.4135 ± 0.001 | 1.4119 ± 0.001 | 1.4103 ± 0.001
w1 = 0.9481 | 1.4343 ± 0.001 | 1.4328 ± 0.001 | 1.4312 ± 0.001 | 1.4296 ± 0.001 | 1.428 ± 0.001 | 1.4264 ± 0.001 | 1.4248 ± 0.001 | 1.4231 ± 0.001 | 1.4214 ± 0.001
w1 = 1 | 1.438 ± 0.001 | 1.4364 ± 0.001 | 1.4348 ± 0.001 | 1.4332 ± 0.001 | 1.4315 ± 0.001 | 1.4299 ± 0.001 | 1.4281 ± 0.001 | 1.4264 ± 0.001 | 1.4247 ± 0.001
